{"source": "paper PMC3847553", "about": "“Kinetic properties of “dual” orexin receptor antagonists at OX1R and OX2R orexin receptors” (Frontiers in Neuroscience, 2013)", "key": {"sleep": {"test_system": "sleep", "design": "method as in Fox et al., 2013", "settings": "rodent studies; ref Fox et al., 2013; cited from earlier work"}, "OX1R [1]": {"test_system": "OX1R", "design": "method as in Sakurai et al., 1998", "settings": "competition radioligand binding, ref Sakurai et al., 1998; cited from earlier work"}, "human OX1R [2]": {"biological_target": "T1, human OX1R (Homo sapiens, UniProt O43613)", "T1 construct": "expressed in transfected cells; host or cells: CHO; cells from GNF, San Diego", "T1 sequence (O43613 1-425)": "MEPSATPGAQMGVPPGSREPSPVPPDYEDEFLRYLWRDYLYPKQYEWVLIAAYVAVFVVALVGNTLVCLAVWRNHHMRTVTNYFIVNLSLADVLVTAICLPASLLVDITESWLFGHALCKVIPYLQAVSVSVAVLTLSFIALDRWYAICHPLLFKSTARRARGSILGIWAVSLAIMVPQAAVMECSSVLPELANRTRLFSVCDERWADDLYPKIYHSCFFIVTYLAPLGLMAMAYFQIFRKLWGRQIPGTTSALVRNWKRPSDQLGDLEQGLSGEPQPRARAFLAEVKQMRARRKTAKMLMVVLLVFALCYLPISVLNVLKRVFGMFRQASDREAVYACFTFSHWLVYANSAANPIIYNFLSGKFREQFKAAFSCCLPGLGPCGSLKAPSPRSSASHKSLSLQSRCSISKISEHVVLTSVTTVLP", "assay": "[3H]-BBAC competition binding over time, CHO-hOX1 membranes", "excerpt": "(§1) Chinese Hamster Ovary (CHO) cells stably transfected with the cDNA encoding the human OX1R (CHO-hOX1) or OX2R (CHO-hOX2) were used (kindly provided by T. Cremer and Dr. S. Geisse, NIBR Basel, Switzerland). For measurements of calcium accumulation using FLIPR® (Fluorescent Imaging Plate Reader) assay, CHO or Human Embryonic Kidney (HEK) cells stably expressing mouse, rat or human OX1R or OX2R (kindly provided by Dr. A. Chen, GNF, San Diego, CA, USA) were used. […] Cells were maintained in a humidified incubator at 37°C in 5% CO2. For crude cell membrane preparations, cells were washed and harvested in 10 mM HEPES (pH 7.5), and centrifuged at 4°C for 5 min at 2500 g. The cell pellet was either stored at −80°C or used directly.\n(§2) Cell membranes were resuspended in binding assay buffer at 4°C (10 mM HEPES, pH 7.5, 0.5% (w/v) bovine serum albumin (BSA), 5 mM MgCl2, 1 mM CaCl2, and 0.05% Tween 20) and homogenized with a Polytron homogenizer at 50 Hz for 20 s. […] Radioactivity was quantified using a TopCount™ microplate counter (Perkin Elmer).\n(§3) All data was analyzed using GraphPad Prism 4.0 (GraphPad, San Diego, USA). The saturation data was fit to a non-linear regression model for saturation binding with consideration for one site binding. […] Competition binding data was fit to a non-linear regression model for competition binding with consideration for variable one site binding with a non-fixed Hill slope."}, "human OX2R [3]": {"biological_target": "T2, human OX2R (Homo sapiens, UniProt O43614)", "T2 construct": "expressed in transfected cells; host or cells: CHO; cells from GNF, San Diego", "T2 sequence (O43614 1-444)": "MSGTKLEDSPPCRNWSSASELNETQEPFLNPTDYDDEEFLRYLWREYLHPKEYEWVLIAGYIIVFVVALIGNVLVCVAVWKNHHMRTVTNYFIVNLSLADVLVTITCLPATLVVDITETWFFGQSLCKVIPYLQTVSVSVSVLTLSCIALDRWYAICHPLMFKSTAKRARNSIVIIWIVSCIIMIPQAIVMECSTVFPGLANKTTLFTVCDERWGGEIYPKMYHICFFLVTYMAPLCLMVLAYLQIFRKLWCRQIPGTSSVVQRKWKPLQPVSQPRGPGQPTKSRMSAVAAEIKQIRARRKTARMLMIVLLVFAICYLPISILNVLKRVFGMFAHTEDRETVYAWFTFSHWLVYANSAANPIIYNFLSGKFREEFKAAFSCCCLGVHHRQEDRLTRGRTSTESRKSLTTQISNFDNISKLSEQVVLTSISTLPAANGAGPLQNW", "assay": "[3H]-BBAC competition binding over time, CHO-hOX2 membranes", "excerpt": "as §1, §2, §3"}, "OX1R [4]": {"test_system": "OX1R", "assay": "FLIPR calcium assay, OX1R, species not given", "type": "cell-based", "settings": "species not stated", "experimental": "(§4) Determination of orexin A-stimulated calcium accumulation was performed over 2 days using FLIPR® (Fluorescent imaging plate reader from Molecular Devices-FLIPR384). Cells expressing either human, rat or mouse OX1R or OX2R were seeded at 8,000 cells/well in black 384 well clear bottom plates and incubated overnight at 37°C. The following day, medium was discarded and cells loaded with 50 μ l of 1 mM Fluo-4 AM (Invitrogen F14202) in dimethyl sulfoxide in working buffer (Hanks' balanced salt solution, 10 mM HEPES) and incubated for 60 min at 37°C. The loading buffer was removed and cells were washed with 100 μ l working buffer containing […], 0.1% BSA, and 2.5 mM Probenecid (pH 7.4) to remove the excess Fluo-4 AM. Working buffer was added and plates were incubated 10–15 min at room temperature. The assay plate was then transferred to the Molecular Devices-FLIPR384. The baseline calcium signal was recorded for 10 s, then the antagonist of interest was injected (10 μl at 3 times the final concentration) and the calcium signal recorded every second for 1 min, then every 2 s 40 times. Plates were then incubated at room temperature for 30 min, 1, 2, or 4 h."}, "OX2R": {"test_system": "OX2R", "assay": "FLIPR calcium assay, OX2R, species not given", "type": "cell-based", "settings": "species not stated", "experimental": "as §4"}, "human OX1R [5]": {"biological_target": "T1, human OX1R", "assay": "[3H]-BBAC saturation binding, CHO-hOX1 membranes", "excerpt": "as §1, §2\n(§5) Data in the figures is representative of the mean ± s.e.m. of a single experiment.\n(§6) All data was analyzed using GraphPad Prism 4.0 (GraphPad, San Diego, USA). The saturation data was fit to a non-linear regression model for saturation binding with consideration for one site binding. […]"}, "human OX2R [6]": {"biological_target": "T2, human OX2R", "assay": "[3H]-BBAC saturation binding, CHO-hOX2 membranes", "excerpt": "as §1, §2, §5, §6"}}, "data": [{"compound": "C[C@@H]1CC[C@@H](COc2ccc(F)cn2)CN1C(=O)c1cc(F)ccc1-c1ncccn1", "note": "[DORA-22]", "values": [{"measurement": "effect on sleep", "setting": "sleep", "result": "promotes sleep with dose-dependent increases in REM sleep"}]}, {"compound": "orexin B: endogenous orexin peptide", "values": [{"measurement": "affinity", "setting": "OX1R [1]", "result": 250, "unit": "nM"}]}, {"compound": "Cn1c(SCC(=O)N2CCC[C@H]2C(=O)Nc2ccccc2-c2ccccc2)nc2ccccc21", "note": "[BBAC, (S)-N-([1,1′-biphenyl]-2-yl)-1-(2-((1-methyl-1H-benzo[d]imidazol-2-yl)thio)acetyl)pyrrolidine-2-carboxamide]", "values": [{"measurement": "effect of incubation time on competition curves", "setting": "human OX1R [2]; competition for 4.6 nM [3H]-BBAC, 15 min to 4 h, human OX1R", "result": "no significant difference in IC50 values measured between 30 min and 4 h"}, {"measurement": "time to reach equilibrium", "setting": "human OX1R [2]; competition for [3H]-BBAC, OX1R", "result": "15 to 30", "unit": "min"}, {"measurement": "effect of incubation time on competition curves", "setting": "human OX2R [3]; competition for 4.6 nM [3H]-BBAC, 15 min to 4 h, human OX2R", "result": "no significant difference in IC50 values measured between 30 min and 4 h"}, {"measurement": "time to reach equilibrium", "setting": "human OX2R [3]; competition for [3H]-BBAC, OX2R", "result": "15 to 30", "unit": "min"}, {"measurement": "effect of incubation time on potency in calcium assay", "setting": "OX1R [4]", "result": "constant potency values irrespective of the incubation time"}, {"measurement": "effect of incubation time on potency in calcium assay", "setting": "OX2R", "result": "constant potency values irrespective of the incubation time"}]}, {"compound": "Cn1c(SCC(=O)N2CCC[C@H]2C(=O)Nc2ccccc2-c2ccccc2)nc2ccccc21", "note": "[[^3H]-BBAC, (S)-N-([1,1′-biphenyl]-2-yl)-1-(2-((1-methyl-1H-benzo[d]imidazol-2-yl)thio)acetyl)pyrrolidine-2-carboxamide]", "values": [{"measurement": "incubation time sufficient to reach Bmax and KD values comparable to 4 h", "setting": "human OX1R [5]", "result": "15 to 30", "unit": "min"}, {"measurement": "Kd", "setting": "human OX2R [6]; CHO-hOX2 membranes, room temperature", "result": "~1", "unit": "nM"}, {"measurement": "incubation time sufficient to reach Bmax and KD values comparable to 4 h", "setting": "human OX2R [6]; OX2R", "result": "15 to 30", "unit": "min"}]}]}
